For experiment [1], the target named is T1, Cytochrome P450 1A2 (Homo sapiens, UniProt P05177).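 Note: PubChem cytochrome P450 panel assay, CYP1A2 panel member.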
T1 sequence (P05177 whole entry): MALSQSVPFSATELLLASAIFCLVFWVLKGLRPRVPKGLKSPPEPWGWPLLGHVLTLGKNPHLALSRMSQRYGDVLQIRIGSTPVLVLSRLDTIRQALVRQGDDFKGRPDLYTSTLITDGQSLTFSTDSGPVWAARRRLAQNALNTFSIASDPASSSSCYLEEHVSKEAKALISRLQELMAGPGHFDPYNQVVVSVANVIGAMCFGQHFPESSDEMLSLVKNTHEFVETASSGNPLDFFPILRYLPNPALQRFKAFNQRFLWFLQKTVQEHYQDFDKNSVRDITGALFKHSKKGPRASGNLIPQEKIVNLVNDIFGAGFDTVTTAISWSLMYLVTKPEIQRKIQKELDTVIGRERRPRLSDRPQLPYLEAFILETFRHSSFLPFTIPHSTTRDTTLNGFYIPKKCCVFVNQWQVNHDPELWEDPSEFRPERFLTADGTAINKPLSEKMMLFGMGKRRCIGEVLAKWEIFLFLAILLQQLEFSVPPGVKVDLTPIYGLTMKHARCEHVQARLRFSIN

The subject of experiment [2] is Streptococcus. The experiment can be described thus: Group A Streptococcus viability loss, dose response, counter-screen for streptokinase expression inhibitor project, luminescence, BacTiterGlo (AID 1915).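 Note: potency for reduction of bacterial viability or growth.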 The class given is functional, organism-based.
Experiment [3] concerns Streptococcus sp. 'group A'. The experiment can be described thus: growth inhibition of control SK(-) GAS strain, dose response, counter-screen for streptokinase expression inhibitor project, luminescence, kanamycin, BacTiterGlo, confirmation (AID 1900). The class given is functional, organism-based.
Experiment [4] has as its target T2, Streptokinase A (Streptococcus pyogenes serotype M1, UniProt P10520).
T2 sequence (P10520 whole entry): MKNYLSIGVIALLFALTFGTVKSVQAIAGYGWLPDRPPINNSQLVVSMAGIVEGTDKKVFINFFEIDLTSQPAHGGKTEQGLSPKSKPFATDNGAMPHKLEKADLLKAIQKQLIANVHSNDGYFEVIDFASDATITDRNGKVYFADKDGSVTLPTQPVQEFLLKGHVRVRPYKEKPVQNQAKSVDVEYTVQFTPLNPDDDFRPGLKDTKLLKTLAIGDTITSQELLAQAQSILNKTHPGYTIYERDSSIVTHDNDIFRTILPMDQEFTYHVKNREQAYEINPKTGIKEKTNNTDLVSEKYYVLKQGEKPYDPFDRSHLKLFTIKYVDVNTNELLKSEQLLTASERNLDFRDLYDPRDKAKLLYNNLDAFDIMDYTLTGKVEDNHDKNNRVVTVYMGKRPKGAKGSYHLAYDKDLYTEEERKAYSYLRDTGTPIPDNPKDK
The experiment can be described thus: S. pyogenes streptokinase expression inhibitors, potency, dose response, plasminogen activation absorbance, OD405 (AID 1914).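 Note: secreted streptokinase activity via plasminogen activation per viability signal from cell pellet.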 Type of experiment: functional, Streptococcus pyogenes M1 GAS.

Experiment [5] concerns the target T3, Corticotropin-releasing factor receptor 2/Corticotropin-releasing factor-binding protein (Homo sapiens, UniProt P24387+Q13324).
T3 sequence (Q13324 whole entry): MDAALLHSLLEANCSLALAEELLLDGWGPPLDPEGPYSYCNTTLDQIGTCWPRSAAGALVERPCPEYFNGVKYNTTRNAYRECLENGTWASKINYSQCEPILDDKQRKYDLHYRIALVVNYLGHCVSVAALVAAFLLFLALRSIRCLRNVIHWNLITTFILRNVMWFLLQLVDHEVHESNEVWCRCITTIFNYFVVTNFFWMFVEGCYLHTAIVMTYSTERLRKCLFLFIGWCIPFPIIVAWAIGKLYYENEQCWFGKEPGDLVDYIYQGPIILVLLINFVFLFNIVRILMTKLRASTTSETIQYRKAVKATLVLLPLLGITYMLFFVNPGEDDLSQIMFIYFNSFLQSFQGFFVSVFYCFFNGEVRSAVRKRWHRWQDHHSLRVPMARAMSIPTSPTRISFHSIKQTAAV
T3 sequence (P24387 whole entry): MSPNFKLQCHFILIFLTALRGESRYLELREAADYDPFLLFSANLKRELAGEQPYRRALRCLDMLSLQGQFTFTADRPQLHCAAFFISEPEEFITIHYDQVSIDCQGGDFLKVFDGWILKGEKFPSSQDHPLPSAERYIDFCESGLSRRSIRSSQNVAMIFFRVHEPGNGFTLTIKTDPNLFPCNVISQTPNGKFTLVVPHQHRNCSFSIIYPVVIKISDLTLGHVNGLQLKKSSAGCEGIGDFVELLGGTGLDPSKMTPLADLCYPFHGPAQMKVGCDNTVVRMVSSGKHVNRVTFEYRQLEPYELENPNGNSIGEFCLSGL
In words: Dose Response confirmation of uHTS hits for small molecule antagonists of the CRF-binding protein and CRF-R2 receptor complex. Type of experiment: functional. Particulars: read-out: IC50_Mean.

The target in experiment [6] is T3, Corticotropin-releasing factor receptor 2/Corticotropin-releasing factor-binding protein. The experiment can be described thus: activators of CRF receptor 2 with binding protein – uHTS hits, confirmation (AID 602473). Type of experiment: functional. Particulars: read-out: EC50_Mean.
Experiment [7] addresses Cytochrome P450 2C19 (Homo sapiens, UniProt P33261). In words: Cytochrome panel assay with activity outcomes. Panel member name: p450-cyp2c19 Compounds with AC50 equal or less than 10 uM are considered active. Type of experiment: functional. The following applies: read-out: AC50.
For experiment [8], the target named is Cytochrome P450 3A4 (Homo sapiens, UniProt P08684).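 Note: CYP3A4 tested as one member of a cytochrome P450 panel screen.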
Sequence of Cytochrome P450 3A4 (P08684 whole entry): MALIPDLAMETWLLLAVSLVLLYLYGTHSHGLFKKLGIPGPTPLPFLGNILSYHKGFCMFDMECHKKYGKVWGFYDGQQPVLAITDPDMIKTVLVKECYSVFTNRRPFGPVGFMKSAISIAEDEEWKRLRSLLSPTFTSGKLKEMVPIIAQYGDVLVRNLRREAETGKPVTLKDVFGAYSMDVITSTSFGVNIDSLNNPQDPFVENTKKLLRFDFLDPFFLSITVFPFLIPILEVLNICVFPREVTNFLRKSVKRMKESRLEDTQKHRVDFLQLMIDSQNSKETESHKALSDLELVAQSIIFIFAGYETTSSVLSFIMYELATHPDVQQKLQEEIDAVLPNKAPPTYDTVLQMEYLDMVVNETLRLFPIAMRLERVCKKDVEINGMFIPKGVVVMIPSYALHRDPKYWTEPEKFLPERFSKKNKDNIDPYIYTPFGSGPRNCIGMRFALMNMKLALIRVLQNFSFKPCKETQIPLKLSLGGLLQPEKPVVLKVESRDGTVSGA
Experiment [9] addresses T4, Heat shock factor protein 1 (Mus musculus, UniProt P38532).
T4 sequence (P38532 whole entry): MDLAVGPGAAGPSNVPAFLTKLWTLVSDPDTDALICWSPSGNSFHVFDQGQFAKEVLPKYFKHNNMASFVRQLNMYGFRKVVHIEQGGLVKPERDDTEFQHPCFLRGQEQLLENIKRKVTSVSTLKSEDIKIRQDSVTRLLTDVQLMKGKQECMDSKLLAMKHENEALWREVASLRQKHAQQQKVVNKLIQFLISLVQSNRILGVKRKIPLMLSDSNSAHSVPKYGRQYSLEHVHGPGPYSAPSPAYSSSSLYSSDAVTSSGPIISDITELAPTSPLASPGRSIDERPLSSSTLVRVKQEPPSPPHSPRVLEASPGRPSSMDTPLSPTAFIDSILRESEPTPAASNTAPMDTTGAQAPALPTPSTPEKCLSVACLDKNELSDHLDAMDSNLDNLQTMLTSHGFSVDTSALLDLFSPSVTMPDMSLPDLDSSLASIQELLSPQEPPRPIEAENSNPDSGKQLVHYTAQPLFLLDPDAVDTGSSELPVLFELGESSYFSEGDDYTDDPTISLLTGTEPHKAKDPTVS
The experiment can be described thus: inhibition of MG132-induced HSE-luciferase signal, confirmation, cell-based, NIH3T3, luminescence, dose retest (AID 2382).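 Note: NIH3T3 fibroblasts with HSF1-driven luciferase reporter stressed by proteasome inhibitor MG132; luminescence from HSF1-driven luciferase expression after 8 hours of MG132 stress.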 Type of experiment: functional.

Experiment [10] concerns the target Cytochrome P450 2C9 (Homo sapiens, UniProt P11712).
Experiment [11] concerns the target Cytochrome P450 2D6 (Homo sapiens, UniProt P10635).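 Note: CYP2D6 member of a cytochrome P450 panel assay.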

As usually defined, the AC50 is the midpoint of the concentration-response curve, whichever way the signal moves.

SMILES strings stand for the structures. Activity calls are given as the source filed them.

Sequence of Cytochrome P450 2C19 (P33261 whole entry): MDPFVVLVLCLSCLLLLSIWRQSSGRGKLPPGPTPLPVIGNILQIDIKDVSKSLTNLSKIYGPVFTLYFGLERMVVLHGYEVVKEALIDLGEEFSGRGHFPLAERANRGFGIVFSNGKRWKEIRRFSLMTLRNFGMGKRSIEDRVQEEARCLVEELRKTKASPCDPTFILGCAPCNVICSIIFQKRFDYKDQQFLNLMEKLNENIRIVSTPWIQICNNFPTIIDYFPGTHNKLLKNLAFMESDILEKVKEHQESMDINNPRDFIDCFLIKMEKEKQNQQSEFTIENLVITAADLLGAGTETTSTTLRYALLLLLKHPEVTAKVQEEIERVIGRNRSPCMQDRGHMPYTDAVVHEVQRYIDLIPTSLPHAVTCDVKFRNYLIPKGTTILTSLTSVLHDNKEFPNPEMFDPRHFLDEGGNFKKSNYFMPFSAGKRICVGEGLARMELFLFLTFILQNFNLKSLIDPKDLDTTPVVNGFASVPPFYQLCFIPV
Sequence of Cytochrome P450 2C9 (P11712 whole entry): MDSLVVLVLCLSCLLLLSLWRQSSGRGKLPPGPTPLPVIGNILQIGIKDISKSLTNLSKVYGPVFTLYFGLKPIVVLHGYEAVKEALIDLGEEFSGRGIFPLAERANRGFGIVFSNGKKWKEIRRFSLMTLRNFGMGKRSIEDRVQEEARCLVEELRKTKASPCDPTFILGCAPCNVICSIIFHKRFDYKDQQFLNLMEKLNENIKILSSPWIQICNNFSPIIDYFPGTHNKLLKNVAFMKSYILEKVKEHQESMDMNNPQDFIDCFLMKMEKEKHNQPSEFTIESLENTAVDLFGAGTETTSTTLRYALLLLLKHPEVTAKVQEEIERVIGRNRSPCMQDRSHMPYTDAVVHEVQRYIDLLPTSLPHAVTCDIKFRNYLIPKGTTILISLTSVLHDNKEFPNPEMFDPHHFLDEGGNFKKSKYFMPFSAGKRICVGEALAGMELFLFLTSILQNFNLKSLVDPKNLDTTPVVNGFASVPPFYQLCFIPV
Sequence of Cytochrome P450 2D6 (P10635 whole entry): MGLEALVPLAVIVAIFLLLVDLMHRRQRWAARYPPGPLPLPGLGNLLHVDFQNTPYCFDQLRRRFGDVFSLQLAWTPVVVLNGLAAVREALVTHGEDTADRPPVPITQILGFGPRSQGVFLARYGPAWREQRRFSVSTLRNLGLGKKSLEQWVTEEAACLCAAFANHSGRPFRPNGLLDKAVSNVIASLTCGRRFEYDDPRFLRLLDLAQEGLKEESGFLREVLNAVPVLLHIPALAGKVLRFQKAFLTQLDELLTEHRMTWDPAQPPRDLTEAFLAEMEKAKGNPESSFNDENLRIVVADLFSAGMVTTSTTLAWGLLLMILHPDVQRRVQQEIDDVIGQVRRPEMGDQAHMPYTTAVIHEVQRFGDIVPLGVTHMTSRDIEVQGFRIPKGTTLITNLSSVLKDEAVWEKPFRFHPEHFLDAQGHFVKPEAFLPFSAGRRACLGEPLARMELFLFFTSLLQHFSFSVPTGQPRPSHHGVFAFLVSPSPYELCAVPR

As for `O=C(O)c1ccc(NCc2nc3cc4ccccc4cc3[nH]2)cc1`, the AC50 in experiment [1] was 5.01 µM (inconclusive).
Same read-out and setting: in the case of `Cc1ccc(-n2c(S)nnc2-c2cc(C)n(C)n2)cc1` it was 28.2 µM (inconclusive).
In the case of `O=C(NCc1ccc2c(c1)OCO2)Nc1ccc(F)cc1`, the EC50 in experiment [2], in [3] and in [4] was > 150 µM (not active) in each case.
As to `C/C(=N/NC(=O)CNC(=O)c1cccnc1)c1cccc([N+](=O)[O-])c1`, the EC50 in [2], in experiment [3] and in experiment [4] was > 150 µM (not active) each time.
With `CCCCN(C(=O)CSc1nnc[nH]1)c1c(N)n(Cc2ccccc2)c(=O)[nH]c1=O`, the IC50 in experiment [5] is > 47.1 µM (inactive). Besides, the EC50 in experiment [6] was > 53 µM (inactive).
In the case of `Cc1cc(C(=O)Nc2ccc3c(c2)OCCO3)nn1C(C)(C)C`, the IC50 in [5] was > 47.1 µM (inactive). The EC50 in experiment [6] is > 53 µM (inactive).
As to `CCCCCC(=O)O[C@H](CC(=O)O)C[N+](C)(C)C`, in experiment [1], the AC50 is 31.6 µM (inconclusive).
In the case of `Cc1cc(C)c(NC(=O)CSc2nnc(Cc3cccn3C)n2-c2ccc(F)cc2)c(C)c1`, the AC50 in experiment [1] was 2.51 µM (inconclusive); in experiment [7], 28.2 µM (inconclusive).
For `COc1ccc(Cc2nnc(NC(=O)Nc3ccc(C)cc3)s2)cc1OC`, the IC50 in experiment [5] was > 47.1 µM (inactive). Moreover, the EC50 in [6] was > 53 µM (inactive).
Regarding `COc1ccc(NC(=O)N2CCC3(CC2)CCN(C(=O)c2csnn2)CC3)cc1`, the values for the AC50 in [8] and in experiment [1] were 12.6 µM (inconclusive) and 6.31 µM (inconclusive), respectively.
With `Cn1cc(CN2CCCC(C(=O)Nc3cccc(-c4cc5ccccc5[nH]4)c3)C2)cn1` (configuration not stated), in experiment [5], the IC50 is > 47.1 µM (inactive). Moreover, the EC50 in experiment [6] was 42.9 µM (active).
Consider `CCOC(=O)c1cc2c(=O)n3cccc(C)c3nc2n(CCOC)/c1=N\C(C)=O`, for which the EC50 in [9] was > 195 µM (not active).
On to `Cc1ccccc1OCC(=O)NC(=S)Nc1ccc(N2CCOCC2)c(Cl)c1`, for which the AC50 in [8] is 14.1 µM (inconclusive); in [10], 15.8 µM (inconclusive); in experiment [1], 12.6 µM (inconclusive).
Regarding `COCCn1c(=O)c(-c2cc(F)cc(F)c2)nc2cnc(N3CCN(C)CC3)nc21`, the figures for the AC50 in [10] and in experiment [1] were 39.8 µM (inconclusive) and 15.8 µM (inconclusive), respectively.
In the case of `Cn1cccc1C(=O)N1CCC[C@@]2(CCN(Cc3ccccc3)C2)C1`, the AC50 in experiment [8] is 5.01 µM (inconclusive); in experiment [1] it was 10 µM (inconclusive).
As to `O=C(Nc1ccccc1)c1ccccc1OCc1cccc([N+](=O)[O-])c1`, in experiment [5], the IC50 was > 47.1 µM (inactive). Besides, in experiment [6], the EC50 is > 53 µM (inactive).
For the compound `COCCCN(Cc1ccco1)C(=O)CSc1nc2ccc[nH]c-2n1`, in experiment [9], the EC50 is reported as > 195 µM (not active).
`O=C(O)/C=C\C(=O)Nc1ccc2c(c1)C(=O)c1cc(F)ccc1-2`: the AC50 in experiment [1] is 0.794 µM (inconclusive).
Consider `Fc1ccccc1CNc1ccc(Cl)c(Cl)c1`, for which the results for the EC50 in experiment [2], in experiment [3] and in experiment [4] were 63.8 µM (active), 11.4 µM (active) and > 150 µM (not active), respectively.
Regarding `Cc1cccc(N2C(=O)NC(=O)/C(=C\c3ccc(N4CCOCC4)cc3)C2=O)c1`, the IC50 in experiment [5] is > 47.1 µM (inactive). The EC50 in experiment [6] was > 53 µM (inactive).
Regarding `O=C(NCc1cn2ccccc2n1)C1CCC(=O)N(Cc2ccccc2F)C1` (configuration not stated), the IC50 in [5] was > 47.1 µM (inactive). Further, the EC50 in experiment [6] was > 53 µM (inactive).
In the case of `Cc1ccc(NC(=O)C2CCCN2S(=O)(=O)c2ccc3c(c2)n(C)c(=O)c(=O)n3C)cc1C` (configuration not stated), in experiment [9], the EC50 is given as > 195 µM (not active).
For `COc1ccc(S(=O)(=O)Nc2c(C)n(C)n(-c3ccccc3)c2=O)cc1C(=O)O`, the IC50 in [5] was > 47.1 µM (inactive). For the same compound, the EC50 in [6] is > 53 µM (inactive).
As for `Cc1cc(C)c(NC(=O)C(C)Sc2nnc(-c3ccco3)n2-c2ccccc2)c(C)c1` (configuration not stated), the AC50 in experiment [1] is 22.4 µM (inconclusive).
Turning to `CCOc1ccc(NC(=O)c2cccnc2C(=O)O)cc1`, the EC50 in experiment [9] was > 195 µM (not active).
For the compound `CC(C)(C)N/N=C1\CC(c2ccccc2)Oc2ccccc21` (configuration not stated), the figures for the EC50 in experiment [2], in experiment [3] and in [4] were > 150 µM (not active), 6.48 µM (active) and 7.08 µM (active), respectively.
`COC(=O)CN1C(=O)Nc2ccc(C)cc2C1c1ccccc1` (configuration not stated): the EC50 in experiment [9] was > 195 µM (not active).
`COc1ccc(COC(=O)N/N=C(\C)CC(=O)Nc2c(C)cc(C)cc2C)cc1`: the AC50 in [1] was 22.4 µM (inconclusive); in experiment [7], 25.1 µM (inconclusive).
As for `O=C(O)c1cc(-c2ccc3cc4c(cc3c2)OCO4)nc2ccccc12`, the AC50 in experiment [1] was 3.16 µM (inconclusive).
With `CC1(C2CC2)NC(=O)N(CC(=O)Nc2ccccc2F)C1=O` (configuration not stated), in experiment [5], the IC50 was > 47.1 µM (inactive). In experiment [6], the EC50 was > 53 µM (inactive).
As to `COc1ccc(S(=O)(=O)Nc2ccccc2C(=O)N2CCOCC2)cc1Cl`, in experiment [9], the EC50 is 46 µM (active).
`CC12CCC(C/C1=N\OC(=O)c1c(F)cccc1F)C2(C)C` (configuration not stated): in [5], the IC50 was > 47.1 µM (inactive). For the same compound, in experiment [6], the EC50 was > 53 µM (inactive).
Consider `COC(=O)c1sccc1-c1ccc(C(=O)Nc2cccnc2)o1`, for which the AC50 in [1] was 0.282 µM (inconclusive).
As for `O=C(c1cccc(F)c1)N1CCC[C@@]2(CCN(Cc3nccs3)C2)C1`, the AC50 was 20 µM (inconclusive) in experiment [11] and 12.6 µM (inconclusive) in experiment [1].
As to `CC(C)NC(=S)N(CCc1ccncc1)C(C)C`, the IC50 in experiment [5] is > 47.1 µM (inactive). Besides, in experiment [6], the EC50 was > 53 µM (inactive).

(Values after ChEMBL document CHEMBL1201862, “PubChem BioAssay data set” (2004).)
